Earlier results as cited in article PMC6154651 (Molecules : A Journal of Synthetic Chemistry and Natural …, 2017).

Tests used:
FXR [1] = test system: FXR; set-up: method as in PMID 16626693
[2] = test system: FXR-LBD (ligand binding domain)
obstructive cholestasis = details: bile duct-ligated mice
LCA-induced cholestasis = details: mice, low dose 20 mg/kg
FXR [3] = details: HepG2 cells

Structure (SMILES): C[C@@H]1O[C@@H](O[C@H]2[C@H](OC(=O)[C@]34CCC(C)(C)C[C@H]3C3=CC[C@@H]5[C@@]6(C)C[C@H](O)[C@H](O[C@@H]7O[C@H](CO)[C@@H](O)[C@H](O)[C@H]7O)C(CO)(CO)[C@@H]6CC[C@@]5(C)[C@]3(C)C[C@H]4O)OC[C@H](O)[C@@H]2O)[C@H](O)[C@H](O)[C@H]1O[C@@H]1OC[C@@H](O)[C@H](O[C@@H]2OC[C@](O)(CO)[C@H]2O)[C@H]1O [platycodin D]
- activity on FXR (FXR [1]): weak activity

Structure (SMILES): CC1(C)CC[C@]2(C(=O)O)CC[C@]3(C)C(=CC[C@@H]4[C@@]5(C)CC[C@H](O)C(C)(C)[C@@H]5CC[C@]43C)[C@@H]2C1 [Compound 1, oleanolic acid]
- activity of FXR-LBD induced by CDCA [2]: dose-dependently suppressed
- effect on obstructive cholestasis (obstructive cholestasis): attenuate obstructive cholestasis
- protection against LCA-induced cholestasis (LCA-induced cholestasis): could protect
- CDCA induction of bile salt export protein (BSEP) (FXR [3]; 25 μM): partially blocked
- expression of organic solute transporter (OST-β) (FXR [3]; 25 μM): did not affect
- expression levels of cholesterol 7α-hydroxylase (CYP7A1) (FXR [3]): suppressed
- expression of short heterodimer partner (SHP) (FXR [3]): slightly enhanced

Structure (SMILES): CC1(C)CCC2(C(=O)O)CCC3(C)C(=CCC4C5(C)CCC(OC(=O)c6ccccc6C(=O)O)C(C)(C)C5CCC43C)C2C1 (stereo not drawn) [NPLC441, 3-β-(2-carboxybenzoyloxy)-oleanolic acid]
- binding to retinoid X receptor-LBD (retinoid X receptor-LBD): bound strongly
